Tests used:
[1] = tested on: LPS-primed THP-1 cells; experiment: Cytokine production in LPS-primed THP-1 cells (ELISA of culture supernatant); format: cell-based, human
Method: (§1) Human monocyte cell line THP-1 (JCRB registration number: JCRB0112) was suspended at 1×10^6 cells/mL in RPMI1640 medium containing 1 μg/mL lipopolysaccharide (LPS) and 10% FBS, and incubated in a CO2 incubator for 3 hours for cell priming. The cell suspension was centrifugated, the cells were resuspended at 1×10^6 cells/mL in RPMI1640 medium containing 10% FBS, and the cell suspension was added to a 24-well plate at 500 μL/well. An OSK-1 solution was prepared at a 2-fold higher concentration than the final concentration in RPMI1640 medium containing 10% FBS and added to the plate at 500 μL/well. After about 16 hours, the culture supernatant was harvested, and the cytokine concentrations in the supernatant were measured by ELISA.
THP-1 cells were suspended at 1×10^6 cells/mL in RPMI1640 medium containing 1 μg/mL LPS and 10% FBS, and incubated in a CO2 incubator for 3 hours for cell priming. The cell suspension was centrifugated, the cells were resuspended at 1×10^6 cells/mL in RPMI1640 medium containing 10% FBS, and the cell suspension was added to a 24-well plate at 500 μL/well. […] After about 16 hours, the culture supernatant was harvested, and the cytokine concentrations in the supernatant were measured by ELISA.

[2] = tested on: inflammasomes; experiment: Inflammasome activation: IL-1β and TNFα production in NLRP3-knockdown and control siRNA THP-1 cells; format: cell-based, human; settings: OSK-1 10 μg/mL, 16 hours
Method: THP-1 cells were transfected with a siRNA against the inflammasome component NLRP3 (NOD-like receptor family, pyrin domain containing 3) (final concentration: 100 nM, Hs_CIAS 1_6 and Hs_CIAS 1_9, manufactured by QIAGEN) or a control siRNA using a transfection reagent (6 μL/well, HiPerFect Transfection Reagent, manufactured by QIAGEN). After overnight culture, the expression level of NLRP3 was determined by western blotting.
as §1, with “Each type of the” for “Human monocyte cell line”, “cells” for “(JCRB registration number: JCRB0112)”, “LPS” for “lipopolysaccharide (LPS)”, “After” for “After about”, “IL-1β and TNFα” for “cytokine”

[3] = tested on: inflammasomes; experiment: Inflammasome activation: IL-1β production in THP-1 cells with or without LPS priming, cathepsin B inhibitor or caspase-1 inhibitor; format: cell-based, human
Method: THP-1 cells were suspended at 1×10^6 cells/mL in RPMI1640 medium containing 1 μg/mL LPS and 10% FBS, and incubated in a CO2 incubator for 3 hours for cell priming. The cell suspension was centrifugated, the cells were resuspended at 1×10^6 cells/mL in RPMI1640 medium containing 10% FBS, and the cell suspension was added to a 96-well plate at 100 μL/well. The cathepsin B inhibitor Ca-074-Me (final concentration: 10 μM), the caspase-1 inhibitor Z-YVAD-FMK (final concentration: 10 μM) or the medium was added to the wells. After that, OSK-1 or the medium was added to the wells, and the cells were cultured in a CO2 incubator. After 16 hours, the culture supernatant was harvested, and the cytokine concentrations in the supernatant were measured by ELISA.

[4] = tested on: mouse bone marrow-derived dendritic cells; experiment: Cytokine production in mouse bone marrow-derived dendritic cells (ELISA); format: cell-based; settings: about 16 hours
Method: Bone marrow cells were harvested from the thigh bone of a C57BL/6 mouse, seeded in RPMI1640 medium containing […] GM-CSF (granulocyte macrophage colony-stimulating factor) and 10% FBS, and cultured for 3 days. After the 3-day culture, a fresh medium was added and culture was continued for additional 4 days. The cells not adherent on the culture plate were harvested and regarded as bone marrow-derived dendritic cells. The cells were suspended at 2×10^6 cells/mL in RPMI1640 medium containing 10% FBS, and the cell suspension was added to a 24-well plate at 500 μL/well. An OSK-1 solution was prepared at a 2-fold higher concentration than the final concentration in RPMI1640 medium containing 10% FBS and added to the plate at 500 μL/well. After about 16 hours, the culture supernatant was harvested, and the cytokine concentrations in the supernatant were measured by ELISA.

[5] = tested on: C3H/HeN mice; experiment: Hair-growth effect in shaved mice; format: in vivo
Method: The dorsal skin of 8-week-old male C3H/HeN mice in the resting phase of the hair cycle was shaved using a hair clipper and a shaver with caution to avoid damage to the skin. The shaved area was 2×4 cm. To the shaved area, 100 μL of a 0.02% (w/v), 0.1% (w/v) or 0.5% (w/v) OSK-1 solution was applied once daily for 14 days starting from 3 days after the shaving. For the control group, physiological saline was applied, and for the positive control group, 3% (w/v) minoxidil was applied. The day of shaving was designated as Day 0. On Day 3, Day 7, Day 10, Day 14 and Day 17, the percentage of the area of hair regrowth relative to the entire shaved area in each mouse was scored according to the following criteria: 0% was defined as score 0, 20% or less was defined as score 1, 40% or less was defined as score 2, 60% or less was defined as score 3, 80% or less was defined as score 4, and 100% or less was defined as score 5. In addition, 10 strands of newly grown hair in the shaved area of each mouse were pulled out on Day 17, the length of each strand of newly grown hair was measured under a stereomicroscope, and the measured lengths were summed as the hair length (mm) of each animal.

[6] = compared with alum or the CpG nucleotide

In the case of “ELKLIFLHRLKRLRKRLKRK (Ac-ELKLIFLHRLKRLRKRLKRK-NH2) [OSK-1]”, the “production of the cytokines (IL-1β, IL-18, TNFα and IL-6 concentrations in the culture supernatant)” value ([1]; about 16 hours, ELISA) is reported as “induce the production of the cytokines in the LPS-primed THP-1 cells in an OSK-1 concentration dependent manner”, the “production of IL-1β” value [1, 6] is reported as “more strongly induced” and the “production of TNFα” value [1, 6] is reported as “more strongly induced”. The “production of IL-1β” value ([2]; LPS-primed NLRP3-knockdown THP-1 cells) was “the induction of IL-1β production by OSK-1 was inhibited”, the “production of TNFα” value ([2]; NLRP3-knockdown and control siRNA THP-1 cells) was “induced by OSK-1 regardless of whether NLRP3 expression was knocked down or not” and the IL-1β production ([3]; LPS-primed THP-1 cells versus non-primed THP-1 cells, 16 hours) was “induced the production of IL-1β only in the LPS-primed THP-1 cells”. For the same sequence, the IL-1β production ([3]; LPS-primed THP-1 cells, in the presence of caspase-1 inhibitor Z-YVAD-FMK 10 μM) was “also inhibited by Z-YVAD-FMK”, the IL-1β production ([3]; LPS-primed THP-1 cells, in the presence of cathepsin B inhibitor Ca-074-Me 10 μM) was “inhibited by Ca-074-Me” and the “production of the cytokines (IL-1β, IFNγ, TNFα, IL-6 and IL-12p70)” value [4] was “induced the production of the cytokines in the mouse bone marrow-derived dendritic cells in an OSK-1 concentration dependent manner”. The hair length ([5]; 0.5% OSK-1 group, Day 17, compared with 3% minoxidil group) was “almost comparable to those in the 3% minoxidil group”, the hair regrowth score ([5]; 0.5% OSK-1 group, compared with 3% minoxidil group) was “almost comparable to those in the 3% minoxidil group” and the hair growth ([5]; 100 μL of 0.02%, 0.1% or 0.5% (w/v) solution on shaved dorsal skin once daily for 14 days) was “promote hair growth in a concentration dependent manner”.
